Source: patent publication US20230248034A1, “A SWEETENER OR SWEETNESS ENHANCER COMPOSITION” (ANALYTICON DISCOVERY GMBH, priority 2020, published 2023)

How the values were obtained:
[1] = Organoleptic test of the compounds against sucrose (sweetness); type: in vivo; parameters: key: 3: sweeter than the control solution; 2: sweetness comparable with the control solution; 1: less sweet than the control solution but still sweet; settings: 0.4 mg/ml (400 ppm) in non-carbonated mineral water vs sucrose 20 g/l; panel of 3-4 panelists
Description: The isolated pure compound was dissolved in non-carbonated mineral water (“Evian”) in a concentration of 0.4 mg/ml (400 ppm). The sweet taste of each sample was compared by a panel of 3-4 panelists with a solution of sucrose in a concentration of 20 g/l.

[2] = Organoleptic test in combination with sucrose against sucrose (sucrose enhancement, 2-AFC); type: in vivo; parameters: key: x = detected; settings: compound below its sweetness perception level in 6% sucrose vs 6% sucrose, 12 to 15 panelists
Description: The isolated pure compounds were dissolved in non-carbonated mineral water (“Evian”) in a concentration of 50 ppm (0.05 mg/ml), 25 ppm (0.025 mg/ml), 12.5 pm (0.0125 mg/ml) and […] (0.00625 mg/ml). The sweet taste of each sample was detected by a panel of 3-4 panelists to detect the sweetness perception level. The highest concentration below the sweetness perception level was used for the evaluation of the sweet taste enhancement of sucrose.
(§1) A solution of the isolated compound in a concentration below the sweetness perception level was dissolved in 6% sucrose solution. The sweet taste of this sample was compared to the sweet taste of a 6% sucrose solution by a panel of 12 to 15 panelists in a two-alternative forced-choice test (2-AFC. E2164-16_Standard Test Method for Directional Difference Test). The panelists were trained to differentiate between the sweetness of a 6% and a 7% Sucrose solution.

[3] = Organoleptic test in combination with Rebaudioside M (Rebaudioside M enhancement, 2-AFC); type: in vivo; parameters: key: x = detected; settings: compound below its sweetness perception level in 150 ppm Rebaudioside M vs 150 ppm Rebaudioside M, 12 to 15 panelists
Description: The isolated pure compounds were dissolved in non-carbonated mineral water (“Evian”) in a concentration of 50 ppm (0.05 mg/ml), 25 ppm (0.025 mg/ml), 12.5 pm (0.0125 mg/ml) and 6.125 ppm (0.006125 mg/ml). The sweet taste of each sample was detected by a panel of 3-4 panelists to detect the sweetness perception level. The highest concentration below the sweetness perception level was used for the evaluation of the sweet taste enhancement of Rebaudioside M.
as §1, with “compounds” for “compound”, “150 ppm Rebaudioside M” for “6% sucrose”, “150 ppm” for “6%”, “190 ppm Rebaudioside M” for “7% Sucrose”

[4] = 5% sucrose in water; cited from earlier work

C[C@@H]1O[C@@H](O[C@H]2[C@H](OC(=O)[C@]34CCC(C)(C)C[C@H]3C3=CCC5[C@@]6(C)C[C@H](O)[C@H](O[C@@H]7O[C@H](CO[C@@H]8OC[C@H](O)[C@H](O)[C@H]8O)[C@@H](O)[C@H](O)[C@H]7O)C(C)(C)C6CC[C@@]5(C)[C@]3(C)C[C@H]4O)OC[C@@H](O)[C@@H]2O)[C@H](O)[C@H](O[C@@H]2OC[C@](O)(CO)[C@H]2O)[C@H]1O[C@@H]1OC[C@H](O)[C@H](O[C@@H]2OC[C@@H](O)[C@H](O)[C@H]2O)[C@H]1O (stereo partly shown) [Astersaponin A]
Sweetness [1]: 2 | Sucrose enhancement [2]: x | Reb M enhancement [3]: x

C[C@@H]1O[C@@H](O[C@H]2[C@H](OC(=O)[C@]34CCC(C)(C)C[C@H]3C3=CCC5[C@@]6(C)CC[C@H](O[C@@H]7O[C@H](CO[C@@H]8OC[C@H](O)[C@H](O)[C@H]8O)[C@@H](O)[C@H](O)[C@H]7O)C(C)(C)C6CC[C@@]5(C)[C@]3(C)C[C@H]4O)OC[C@@H](O)[C@@H]2O)[C@H](O)[C@H](O[C@@H]2OC[C@](O)(CO)[C@H]2O)[C@H]1O[C@@H]1OC[C@H](O)[C@H](O[C@@H]2OC[C@@H](O)[C@H](O)[C@H]2O)[C@H]1O (stereo partly shown) [Astersaponin B]
Sweetness [1]: 1 | Sucrose enhancement [2]: x | Reb M enhancement [3]: x

C[C@@H]1O[C@@H](O[C@@H]2[C@@H](O[C@@H]3O[C@@H](C)[C@H](O[C@@H]4OC[C@H](O)[C@H](O[C@@H]5OC[C@@H](O)[C@H](O)[C@H]5O)[C@H]4O)[C@@H](OC4OC[C@](O)(CO)[C@H]4O)[C@H]3O)[C@H](OC(=O)[C@]34CCC(C)(C)C[C@H]3C3=CCC5[C@@]6(C)C[C@H](O)[C@H](O[C@@H]7O[C@H](CO[C@@H]8OC[C@H](O)[C@H](O)[C@H]8O)[C@@H](O)[C@H](O)[C@H]7O)C(C)(C)C6CC[C@@]5(C)[C@]3(C)C[C@H]4O)OC[C@H]2O)[C@H](O)[C@H](O)[C@H]1O (stereo partly shown) [Astersaponin C]
Sweetness [1]: 3 | Sucrose enhancement [2]: x | Reb M enhancement [3]: x

C[C@@H]1O[C@@H](O[C@@H]2[C@@H](O[C@@H]3O[C@@H](C)[C@H](O[C@@H]4OC[C@H](O)[C@H](O[C@@H]5OC[C@@H](O)[C@H](O)[C@H]5O)[C@H]4O)[C@@H](O[C@@H]4OC[C@](O)(CO)[C@H]4O)[C@H]3O)[C@H](OC(=O)[C@]34CCC(C)(C)C[C@H]3C3=CCC5[C@@]6(C)CC[C@H](O[C@@H]7O[C@H](CO[C@@H]8OC[C@H](O)[C@H](O)[C@H]8O)[C@@H](O)[C@H](O)[C@H]7O)C(C)(C)C6CC[C@@]5(C)[C@]3(C)C[C@H]4O)OC[C@H]2O)[C@H](O)[C@H](O)[C@H]1O (stereo partly shown) [Astersaponin D]
Sweetness [1]: 2 | Sucrose enhancement [2]: x | Reb M enhancement [3]: x

C[C@@H]1O[C@@H](O[C@H]2[C@H](OC(=O)[C@]34CCC(C)(C)C[C@H]3C3=CC[C@@H]5[C@@]6(C)C[C@H](O)[C@H](O[C@@H]7O[C@H](CO[C@@H]8OC[C@H](O)[C@H](O)[C@H]8O)[C@@H](O)[C@H](O)[C@H]7O)C(C)(C)[C@@H]6CC[C@@]5(C)[C@]3(C)C[C@H]4O)OC[C@@H](O)[C@@H]2O)[C@H](O)[C@H](O)[C@H]1O[C@@H]1OC[C@H](O)[C@H](O[C@@H]2OC[C@@H](O)[C@H](O)[C@H]2O)[C@H]1O [Astersaponin E]
Sweetness [1]: 2 | Sucrose enhancement [2]: x | Reb M enhancement [3]: x

C[C@@H]1O[C@@H](O[C@H]2[C@H](OC(=O)[C@]34CCC(C)(C)C[C@H]3C3=CCC5[C@@]6(C)CC[C@H](O[C@@H]7O[C@H](CO[C@@H]8OC[C@H](O)[C@H](O)[C@H]8O)[C@@H](O)[C@H](O)[C@H]7O)C(C)(C)C6CC[C@@]5(C)[C@]3(C)C[C@H]4O)OC[C@@H](O)[C@@H]2O)[C@H](O)[C@H](O)[C@H]1O[C@@H]1OC[C@H](O)[C@H](O[C@@H]2OC[C@@H](O)[C@H](O)[C@H]2O)[C@H]1O (stereo partly shown) [Astersaponin F]
Sweetness [1]: 1 | Sucrose enhancement [2]: x | Reb M enhancement [3]: x

COc1ccc([C@@H]2CC(=O)c3c(O)cc(O)cc3O2)cc1O [hesperetin]
enhancement of the sweetness of sucrose [4]: 41%
